Results: the NIST ThermoML archive (doi:10.1016/j.jct.2006.02.001)
± gives the expanded uncertainty stated by the source.

How the values were obtained:
[1] = xn = mol fraction of the nth substance listed; settings: 101 kPa, Liquid
[2] = refractive index (Na D-line) (dimensionless); xn = mol fraction of the nth substance listed; settings: 101 kPa, Liquid

Cc1cc(C)cc(C)c1 [1,3,5-trimethylbenzene] + COc1ccccc1
Settings	mass density, 288.15 K [kg/m3]	mass density, 293.15 K [kg/m3]	mass density, 298.15 K [kg/m3]	mass density, 303.15 K [kg/m3]	refractive index, 288.15 K	refractive index, 293.15 K	refractive index, 298.15 K	refractive index, 303.15 K
[1], x2 = 0	869.17 ± 0.97	865.07 ± 0.98	861.06 ± 1	856.95 ± 1	–	–	–	–
[1], x2 = 0.1099	880.36 ± 0.92	876.24 ± 0.94	872.21 ± 0.95	868.07 ± 0.97	–	–	–	–
[1], x2 = 0.2441	894.89 ± 0.86	890.7 ± 0.88	886.62 ± 0.9	882.42 ± 0.91	–	–	–	–
[1], x2 = 0.3933	912.23 ± 0.79	907.95 ± 0.81	903.79 ± 0.83	899.5 ± 0.84	–	–	–	–
[1], x2 = 0.509	926.57 ± 0.74	922.2 ± 0.75	917.98 ± 0.77	913.64 ± 0.79	–	–	–	–
[1], x2 = 0.672	948.28 ± 0.65	943.8 ± 0.67	939.52 ± 0.68	935.05 ± 0.7	–	–	–	–
[1], x2 = 0.749	959.22 ± 0.6	954.69 ± 0.62	950.34 ± 0.64	945.87 ± 0.65	–	–	–	–
[1], x2 = 0.8397	972.73 ± 0.55	968.14 ± 0.57	963.75 ± 0.58	959.19 ± 0.6	–	–	–	–
[1], x2 = 0.895	981.31 ± 0.51	976.67 ± 0.53	972.25 ± 0.55	967.63 ± 0.57	–	–	–	–
[1], x2 = 0.967	992.94 ± 0.47	988.19 ± 0.49	983.74 ± 0.5	979.01 ± 0.52	–	–	–	–
[2], x2 = 0	–	–	–	–	1.5045 ± 0.0097	1.4993 ± 0.0096	1.4976 ± 0.0096	1.4948 ± 0.0096
[2], x2 = 0.1099	–	–	–	–	1.5063 ± 0.0097	1.5009 ± 0.0096	1.4991 ± 0.0096	1.4964 ± 0.0096
[2], x2 = 0.2441	–	–	–	–	1.5088 ± 0.0097	1.5029 ± 0.0096	1.5011 ± 0.0096	1.4984 ± 0.0096
[2], x2 = 0.3933	–	–	–	–	1.5116 ± 0.0097	1.5054 ± 0.0096	1.5033 ± 0.0096	1.5007 ± 0.0096
[2], x2 = 0.509	–	–	–	–	1.5142 ± 0.0097	1.5073 ± 0.0096	1.5052 ± 0.0096	1.5026 ± 0.0096
[2], x2 = 0.672	–	–	–	–	1.5175 ± 0.0097	1.5103 ± 0.0096	1.5079 ± 0.0096	1.5054 ± 0.0096
[2], x2 = 0.749	–	–	–	–	1.5193 ± 0.0097	1.5117 ± 0.0097	1.5093 ± 0.0096	1.5068 ± 0.0096
[2], x2 = 0.8397	–	–	–	–	1.5214 ± 0.0097	1.5136 ± 0.0097	1.511 ± 0.0096	1.5086 ± 0.0096
[2], x2 = 0.895	–	–	–	–	1.5228 ± 0.0097	1.5147 ± 0.0097	1.5121 ± 0.0096	1.5097 ± 0.0096
[2], x2 = 0.967	–	–	–	–	1.5247 ± 0.0098	1.5162 ± 0.0097	1.5135 ± 0.0096	1.5111 ± 0.0096

Cc1ccccc1 [toluene] + COc1ccccc1
x2 = 0
Settings	mass density, 288.15 K [kg/m3]	mass density, 293.15 K [kg/m3]	mass density, 298.15 K [kg/m3]	mass density, 303.15 K [kg/m3]	refractive index, 288.15 K	refractive index, 293.15 K	refractive index, 298.15 K	refractive index, 303.15 K
[1]	871.41 ± 0.84	866.87 ± 0.86	862.2 ± 0.88	857.46 ± 0.9	–	–	–	–
[2]	–	–	–	–	1.4996 ± 0.0096	1.497 ± 0.0096	1.4944 ± 0.0096	1.4918 ± 0.0096

COc1ccccc1 [anisole] + Cc1ccccc1C
Settings	mass density, 288.15 K [kg/m3]	mass density, 293.15 K [kg/m3]	mass density, 298.15 K [kg/m3]	mass density, 303.15 K [kg/m3]	refractive index, 288.15 K	refractive index, 293.15 K	refractive index, 298.15 K	refractive index, 303.15 K
[1], x1 = 0.0984	894.18 ± 0.86	890.01 ± 0.88	886.52 ± 0.89	881.84 ± 0.91	–	–	–	–
[1], x1 = 0.2473	910.8 ± 0.8	906.56 ± 0.81	902.92 ± 0.83	898.24 ± 0.84	–	–	–	–
[1], x1 = 0.376	925.35 ± 0.74	921 ± 0.76	917.17 ± 0.77	912.46 ± 0.79	–	–	–	–
[1], x1 = 0.4951	939.01 ± 0.69	934.55 ± 0.7	930.58 ± 0.72	925.89 ± 0.74	–	–	–	–
[1], x1 = 0.6454	956.51 ± 0.61	951.98 ± 0.63	947.89 ± 0.65	943.26 ± 0.67	–	–	–	–
[1], x1 = 0.7463	968.37 ± 0.57	963.81 ± 0.58	959.66 ± 0.6	955.11 ± 0.62	–	–	–	–
[1], x1 = 0.864	982.31 ± 0.51	977.72 ± 0.53	973.49 ± 0.54	968.92 ± 0.56	–	–	–	–
[1], x1 = 0.938	991.11 ± 0.47	986.44 ± 0.49	982.08 ± 0.51	977.48 ± 0.53	–	–	–	–
[1], x1 = 0.9745	995.42 ± 0.46	990.69 ± 0.48	986.24 ± 0.49	981.57 ± 0.51	–	–	–	–
[1], x1 = 1	998.44 ± 0.45	993.65 ± 0.46	989.15 ± 0.48	984.37 ± 0.5	–	–	–	–
[2], x1 = 0.0984	–	–	–	–	1.5091 ± 0.0096	1.5061 ± 0.0096	1.5033 ± 0.0096	1.5015 ± 0.0096
[2], x1 = 0.2473	–	–	–	–	1.5118 ± 0.0096	1.508 ± 0.0096	1.5052 ± 0.0096	1.5027 ± 0.0096
[2], x1 = 0.376	–	–	–	–	1.5141 ± 0.0096	1.5095 ± 0.0096	1.5067 ± 0.0096	1.5048 ± 0.0096
[2], x1 = 0.4951	–	–	–	–	1.516 ± 0.0097	1.5107 ± 0.0096	1.5079 ± 0.0096	1.5059 ± 0.0096
[2], x1 = 0.6454	–	–	–	–	1.5193 ± 0.0097	1.5128 ± 0.0096	1.51 ± 0.0096	1.508 ± 0.0096
[2], x1 = 0.7463	–	–	–	–	1.521 ± 0.0097	1.5145 ± 0.0096	1.5117 ± 0.0096	1.5096 ± 0.0096
[2], x1 = 0.864	–	–	–	–	1.5232 ± 0.0097	1.5156 ± 0.0097	1.5128 ± 0.0096	1.5107 ± 0.0096
[2], x1 = 0.938	–	–	–	–	1.5245 ± 0.0097	1.5164 ± 0.0097	1.5136 ± 0.0096	1.5114 ± 0.0096
[2], x1 = 0.9745	–	–	–	–	1.5252 ± 0.0097	1.5167 ± 0.0097	1.5139 ± 0.0096	1.5116 ± 0.0096
[2], x1 = 1	–	–	–	–	1.5256 ± 0.0098	1.5169 ± 0.0097	1.5141 ± 0.0096	1.5117 ± 0.0096

COc1ccccc1 [anisole] + Cc1cccc(C)c1
Settings	mass density, 288.15 K [kg/m3]	mass density, 293.15 K [kg/m3]	mass density, 298.15 K [kg/m3]	mass density, 303.15 K [kg/m3]	refractive index, 288.15 K	refractive index, 293.15 K	refractive index, 298.15 K	refractive index, 303.15 K
[1], x1 = 0.1006	880.54 ± 0.85	876.26 ± 0.87	872.02 ± 0.88	867.67 ± 0.9	–	–	–	–
[1], x1 = 0.2463	898.41 ± 0.79	894.1 ± 0.8	889.76 ± 0.82	885.42 ± 0.84	–	–	–	–
[1], x1 = 0.3753	914.55 ± 0.73	910.2 ± 0.75	905.8 ± 0.77	901.39 ± 0.78	–	–	–	–
[1], x1 = 0.496	930.02 ± 0.68	925.62 ± 0.7	921.19 ± 0.71	916.71 ± 0.73	–	–	–	–
[1], x1 = 0.6398	948.95 ± 0.61	944.45 ± 0.63	940.02 ± 0.65	935.48 ± 0.66	–	–	–	–
[1], x1 = 0.7468	963.38 ± 0.56	958.8 ± 0.58	954.36 ± 0.6	949.8 ± 0.61	–	–	–	–
[1], x1 = 0.8284	974.53 ± 0.52	969.91 ± 0.54	965.45 ± 0.56	960.86 ± 0.58	–	–	–	–
[1], x1 = 0.9034	984.93 ± 0.49	980.26 ± 0.51	975.77 ± 0.52	971.13 ± 0.54	–	–	–	–
[1], x1 = 0.9613	993.02 ± 0.46	988.29 ± 0.48	983.78 ± 0.5	979.08 ± 0.52	–	–	–	–
[1], x1 = 1	998.44 ± 0.45	993.65 ± 0.46	989.15 ± 0.48	984.37 ± 0.5	–	–	–	–
[2], x1 = 0.1006	–	–	–	–	1.5021 ± 0.0096	1.4992 ± 0.0096	1.4963 ± 0.0096	1.4944 ± 0.0096
[2], x1 = 0.2463	–	–	–	–	1.5055 ± 0.0096	1.5018 ± 0.0096	1.499 ± 0.0096	1.497 ± 0.0096
[2], x1 = 0.3753	–	–	–	–	1.5086 ± 0.0096	1.5042 ± 0.0096	1.5013 ± 0.0096	1.4993 ± 0.0096
[2], x1 = 0.496	–	–	–	–	1.5117 ± 0.0097	1.5065 ± 0.0096	1.5037 ± 0.0096	1.5016 ± 0.0096
[2], x1 = 0.6398	–	–	–	–	1.5155 ± 0.0097	1.5093 ± 0.0096	1.5065 ± 0.0096	1.5044 ± 0.0096
[2], x1 = 0.7468	–	–	–	–	1.5184 ± 0.0097	1.5115 ± 0.0096	1.5088 ± 0.0096	1.5066 ± 0.0096
[2], x1 = 0.8284	–	–	–	–	1.5206 ± 0.0097	1.5132 ± 0.0097	1.5104 ± 0.0096	1.5082 ± 0.0096
[2], x1 = 0.9034	–	–	–	–	1.5228 ± 0.0097	1.5149 ± 0.0097	1.5121 ± 0.0096	1.5098 ± 0.0096
[2], x1 = 0.9613	–	–	–	–	1.5244 ± 0.0097	1.5161 ± 0.0097	1.5133 ± 0.0096	1.511 ± 0.0096
[2], x1 = 1	–	–	–	–	1.5256 ± 0.0098	1.5169 ± 0.0097	1.5141 ± 0.0096	1.5117 ± 0.0096
